According to patent publication US11964990B2, “1,3,4,7-tetrahydro-2H-pyrrolo[3′,2′:5,6]pyrido[2,3-b][1,4]oxazepine bcl-2 inhibitors” (AbbVie Inc., priority 2022, dated 2024):

Tests used:
Molt-4 cells = experiment: Cell viability counter screen assay (CellTiter-Glo) in Molt-4 cells; type: cell-based; conditions: 24 hours, 10% Human Serum, 50% decrease in cell viability
Source text: (§1) The acute lymphoblastic leukemia (ALL) human cell line RS4;11 (ATCC, Manassas VA) was used as the primary human cell line to assess the cellular activity of compound of the present Examples in vitro and their efficacy in vivo. BH3 profiling, a mitochondrial assay that classifies blocks in the intrinsic apoptotic pathway, has shown that RS4;11 cells were highly dependent on Bcl-2 protein for survival and were sensitive to a Bcl-2 inhibitor (Blood. 2008; 111(4):2300-2309). […] The acute lymphoblastic leukemia cell line Molt-4, which is derived from immature T-lymphoid cells (T-ALL), was used as a counter screen assay.
(§2) Frozen RS4;11 or Molt-4 cells (ATCC, Manassas, VA, USA) were thawed overnight in RPMI 1640 media (Thermo Fisher Scientific, Waltham, MA, USA) supplemented with 1% penicillin/streptomycin (Thermo Fisher Scientific, Waltham, MA, USA), and 10% Human Serum (Sigma, St. Louis, MO, USA). 3000 Cells (0.1×10^6/mL) were seeded in each well of 384-well plate and were treated for 24 hours in a humidified chamber with 5% CO2. Cell viability was determined by CellTiter-Glo as described by the manufacturer's instructions (Promega Corporation, Madison, WI, USA). Responses were determined as a percentage of the control treated cells and the effective concentration (EC50) to induce a 50% decrease in cell viability were determined from sigmoidal dose-response curves using Dotmatics (Dotmatics Software Company, Bishops Stortford, Hertfordshire, England).

RS4;11 cells = experiment: Cell viability assay (CellTiter-Glo) in RS4;11 cell line; type: cell-based; conditions: 24 hours, 10% Human Serum, 50% decrease in cell viability
Source text: as §1, §2

## CC1(C)CC(c2ccc(Cl)cc2)=C2CN3CCN(c4ccc(C(=O)NS(=O)(=O)c5ccc(NC[C@@H]6CC[C@@H](O)CO6)c([N+](=O)[O-])c5)c(N5CCCOc6nc7[nH]ccc7cc65)c4)C[C@H]3COCCCO[C@@H]2C1 [Example 27, 4-((4aS,10aR)-14-(4-chlorophenyl)-12,12-dimethyl-1,2,4a,5,8,9,10a,11,13,15-decahydro-7H,12H-benzo[f]pyrazino[2,1-c][1,8]dioxa[4]azacycloundecin-3(4H)-yl)-2-(3,4-dihydro-2H-pyrrolo[3′,2′:5,6]pyrido[2,3-h][1,4]oxazepin-1(7H)-yl)-N-((4-((((2S,5R)-5-hydroxytetrahydro-2H-pyran-2-yl)methyl)amino)-3-nitrophenyl)sulfonyl)benzamide]
Molt-4 cells
  EC50: 535 nM
RS4;11 cells
  EC50: 0.329 nM

## CC1(C)CC(c2ccc(Cl)cc2)=C2CN3CCN(c4ccc(C(=O)NS(=O)(=O)c5ccc(NC[C@H]6CC[C@H](N7CCOCC7)CC6)c([N+](=O)[O-])c5)c(N5CCCOc6nc7[nH]ccc7cc65)c4)C[C@H]3COCCCO[C@@H]2C1 [Example 28, 4-((4aS,10aR)-14-(4-chlorophenyl)-12,12-dimethyl-1,2,4a,5,8,9,10a,11,13,15-decahydro-7H,12H-benzo[f]pyrazino[2,1-c][1,8]dioxa[4]azacycloundecin-3(4H)-yl)-2-(3,4-dihydro-2H-pyrrolo[3′,2′:5,6]pyrido[2,3-h][1,4]oxazepin-1(7H)-yl)-N-((4-((((1r,4r)-4-morpholinocyclohexyl)methyl)amino)-3-nitrophenyl)sulfonyl)benzamide]
Molt-4 cells
  EC50: 274 nM
RS4;11 cells
  EC50: 0.862 nM

## COC1CO[C@H](CNc2ccc(S(=O)(=O)NC(=O)c3ccc(N4CCN5CC6=C(c7ccc(Cl)cc7)CC(C)(C)C[C@H]6OCCCOC[C@@H]5C4)cc3N3CCCOc4nc5[nH]ccc5cc43)cc2[N+](=O)[O-])C1 (stereo partly drawn) [Example 29, 4-((4aS,10aR)-14-(4-chlorophenyl)-12,12-dimethyl-1,2,4a,5,8,9,10a,11,13,15-decahydro-7H,12H-benzo[f]pyrazino[2,1-c][1,8]dioxa[4]azacycloundecin-3(4H)-yl)-2-(3,4-dihydro-2H-pyrrolo[3′,2′:5,6]pyrido[2,3-b][1,4]oxazepin-1(7H)-yl)-N-((4-((((2S)-4-methoxytetrahydrofuran-2-yl)methyl)amino)-3-nitrophenyl)sulfonyl)benzamide]
Molt-4 cells
  EC50: 1890 nM
RS4;11 cells
  EC50: 1.97 nM

## CO[C@H]1C[C@H](Nc2ccc(S(=O)(=O)NC(=O)c3ccc(N4CCN5CC6=C(c7ccc(Cl)cc7)CC(C)(C)C[C@H]6OCCCOC[C@@H]5C4)cc3N3CCCOc4nc5[nH]ccc5cc43)cc2[N+](=O)[O-])C1 [Example 30, 4-((4aS,10aR)-14-(4-chlorophenyl)-12,12-dimethyl-1,2,4a,5,8,9,10a,11,13,15-decahydro-7H,12H-benzo[f]pyrazino[2,1-c][1,8]dioxa[4]azacycloundecin-3(4H)-yl)-2-(3,4-dihydro-2H-pyrrolo[3′,2′:5,6]pyrido[2,3-b][1,4]oxazepin-1(7H)-yl)-N-((4-(((1r,3r)-3-methoxycyclobutyl)amino)-3-nitrophenyl)sulfonyl)benzamide]
Molt-4 cells
  EC50: > 10000 nM
RS4;11 cells
  EC50: 4.1 nM

## CN1CCC(Nc2ccc(S(=O)(=O)NC(=O)c3ccc(N4CCN5CC6=C(c7ccc(Cl)cc7)CC(C)(C)C[C@H]6OCCCOC[C@@H]5C4)cc3N3CCCOc4nc5[nH]ccc5cc43)cc2[N+](=O)[O-])CC1 [Example 31, 4-((4aS,10aR)-14-(4-chlorophenyl)-12,12-dimethyl-1,2,4a,5,8,9,10a,11,13,15-decahydro-7H,12H-benzo[f]pyrazino[2,1-c][1,8]dioxa[4]azacycloundecin-3(4H)-yl)-2-(3,4-dihydro-2H-pyrrolo[3′,2′:5,6]pyrido[2,3-b][1,4]oxazepin-1(7H)-yl)-N-((4-((1-methylpiperidin-4-yl)amino)-3-nitrophenyl)sulfonyl)benzamide]
Molt-4 cells
  EC50: 1220 nM
RS4;11 cells
  EC50: 3.24 nM

## CC1(C)CC(c2ccc(Cl)cc2)=C2CN3CCN(c4ccc(C(=O)NS(=O)(=O)c5ccc(NC[C@H]6CC[C@](C)(O)CC6)c([N+](=O)[O-])c5)c(N5CCCOc6nc7[nH]ccc7cc65)c4)C[C@H]3COCCCO[C@@H]2C1 [Example 32, 4-((4aS,10aR)-14-(4-chlorophenyl)-12,12-dimethyl-1,2,4a,5,8,9,10a,11,13,15-decahydro-7H,12H-benzo[f]pyrazino[2,1-c][1,8]dioxa[4]azacycloundecin-3(4H)-yl)-2-(3,4-dihydro-2H-pyrrolo[3′,2′:5,6]pyrido[2,3-b][1,4]oxazepin-1(7H)-yl)-N-((4-((((1r,4r)-4-hydroxy-4-methylcyclohexyl)methyl)amino)-3-nitrophenyl)sulfonyl)benzamide]
Molt-4 cells
  EC50: 9570 nM
RS4;11 cells
  EC50: 1.67 nM

## CO[C@H]1CC[C@H](COc2ccc(S(=O)(=O)NC(=O)c3ccc(N4CCN5CC6=C(c7ccc(Cl)cc7)CC(C)(C)C[C@H]6OCCCOC[C@@H]5C4)cc3N3CCCOc4nc5[nH]ccc5cc43)cc2[N+](=O)[O-])OC1 [Example 33, 4-((4aS,10aR)-14-(4-chlorophenyl)-12,12-dimethyl-1,2,4a,5,8,9,10a,11,13,15-decahydro-7H,12H-benzo[f]pyrazino[2,1-c][1,8]dioxa[4]azacycloundecin-3(4H)-yl)-2-(3,4-dihydro-2H-pyrrolo[3′,2′:5,6]pyrido[2,3-b][1,4]oxazepin-1(7H)-yl)-N-((4-(((2R,5S)-5-methoxytetrahydro-2H-pyran-2-yl)methoxy)-3-nitrophenyl)sulfonyl)benzamide]
Molt-4 cells
  EC50: 6080 nM
RS4;11 cells
  EC50: 3.49 nM

## CO[C@H]1CC[C@H](CNc2ccc(S(=O)(=O)NC(=O)c3ccc(N4CCN5CC6=C(c7ccc(Cl)cc7)CC(C)(C)C[C@H]6OCCCOC[C@@H]5C4)cc3N3CCCOc4nc5[nH]ccc5cc43)cc2Cl)OC1 [Example 34, N-((3-chloro-4-((((2R,5S)-5-methoxytetrahydro-2H-pyran-2-yl)methyl)amino)phenyl)sulfonyl)-4-((4aS,10aR)-14-(4-chlorophenyl)-12,12-dimethyl-1,2,4a,5,8,9,10a,11,13,15-decahydro-7H,12H-benzo[f]pyrazino[2,1-c][1,8]dioxa[4]azacycloundecin-3(4H)-yl)-2-(3,4-dihydro-2H-pyrrolo[3′,2′:5,6]pyrido[2,3-b][1,4]oxazepin-1(7H)-yl)benzamide]
Molt-4 cells
  EC50: > 10000 nM
RS4;11 cells
  EC50: 57.6 nM

## COCCO[C@H]1CC[C@H](CNc2ccc(S(=O)(=O)NC(=O)c3ccc(N4CCN5CC6=C(c7ccc(Cl)cc7)CC(C)(C)C[C@H]6OCCCOC[C@@H]5C4)cc3N3CCCOc4nc5[nH]ccc5cc43)cc2[N+](=O)[O-])OC1 [Example 35, 4-((4aS,10aR)-14-(4-chlorophenyl)-12,12-dimethyl-1,2,4a,5,8,9,10a,11,13,15-decahydro-7H,12H-benzo[f]pyrazino[2,1-c][1,8]dioxa[4]azacycloundecin-3(4H)-yl)-2-(3,4-dihydro-2H-pyrrolo[3′,2′:5,6]pyrido[2,3-b][1,4]oxazepin-1(7H)-yl)-N-((4-((((2R,5S)-5-(2-methoxyethoxy)tetrahydro-2H-pyran-2-yl)methyl)amino)-3-nitrophenyl)sulfonyl)benzamide]
Molt-4 cells
  EC50: 1740 nM
RS4;11 cells
  EC50: 1.47 nM

## CC1(C)CC(c2ccc(Cl)cc2)=C2CN3CCN(c4ccc(C(=O)NS(=O)(=O)c5ccc(NC[C@H]6CC[C@@](C)(O)CC6)c([N+](=O)[O-])c5)c(N5CCCOc6nc7[nH]ccc7cc65)c4)C[C@H]3COCCCO[C@@H]2C1 [Example 36, 4-((4aS,10aR)-14-(4-chlorophenyl)-12,12-dimethyl-1,2,4a,5,8,9,10a,11,13,15-decahydro-7H,12H-benzo[f]pyrazino[2,1-c][1,8]dioxa[4]azacycloundecin-3(4H)-yl)-2-(3,4-dihydro-2H-pyrrolo[3′,2′:5,6]pyrido[2,3-b][1,4]oxazepin-1(7H)-yl)-N-((4-((((1s,4s)-4-hydroxy-4-methylcyclohexyl)methyl)amino)-3-nitrophenyl)sulfonyl)benzamide]
Molt-4 cells
  EC50: 117 nM
RS4;11 cells
  EC50: 1.47 nM

## CC1(C)CC(c2ccc(Cl)cc2)=C2CN3CCN(c4ccc(C(=O)NS(=O)(=O)c5ccc(NC[C@H]6CC[C@H](N7CCOCC7)CO6)c([N+](=O)[O-])c5)c(N5CCCOc6nc7[nH]ccc7cc65)c4)C[C@H]3COCCCO[C@@H]2C1 [Example 37, 4-((4aS,10aR)-14-(4-chlorophenyl)-12,12-dimethyl-1,2,4a,5,8,9,10a,11,13,15-decahydro-7H,12H-benzo[f]pyrazino[2,1-c][1,8]dioxa[4]azacycloundecin-3(4H)-yl)-2-(3,4-dihydro-2H-pyrrolo[3′,2′:5,6]pyrido[2,3-b][1,4]oxazepin-1(7H)-yl)-N-((4-((((2R,5S)-5-morpholinotetrahydro-2H-pyran-2-yl)methyl)amino)-3-nitrophenyl)sulfonyl)benzamide]
Molt-4 cells
  EC50: 1450 nM
RS4;11 cells
  EC50: 1.05 nM
